Assays:
[1] = test system: K-562; test: NCI-60 anticancer screening (SRB); assay type: cell-based; conditions: Homo sapiens, K562; K-562, leukemia; one dose 10 μM; read-out: Growth Inhibition Percentage (GI %)
[2] = test system: RPMI-8226; test: NCI-60 anticancer screening (SRB); assay type: cell-based; conditions: Homo sapiens; RPMI-8226, leukemia; one dose 10 μM; read-out: Growth Inhibition Percentage (GI %)
[3] = test system: SR; test: NCI-60 anticancer screening (SRB); assay type: cell-based; conditions: Homo sapiens, leukemia, one dose 10 μM, read-out: Growth Inhibition Percentage (GI %)
[4] = test system: EKVX; test: NCI-60 anticancer screening (SRB); assay type: cell-based; conditions: Homo sapiens, NSC lung cancer, one dose 10 μM, read-out: Growth Inhibition Percentage (GI %)
[5] = test system: HOP-62; test: NCI-60 anticancer screening (SRB); assay type: cell-based; conditions: Homo sapiens; HOP-62, NSC lung cancer; one dose 10 μM; read-out: Growth Inhibition Percentage (GI %)
[6] = test system: HOP-92; test: NCI-60 anticancer screening (SRB); assay type: cell-based; conditions: Homo sapiens; HOP-92, NSC lung cancer; one dose 10 μM; read-out: Growth Inhibition Percentage (GI %)
[7] = test system: NCI-H226; test: NCI-60 anticancer screening (SRB); assay type: cell-based; conditions: Homo sapiens; NCI-H226, NSC lung cancer; one dose 10 μM; read-out: Growth Inhibition Percentage (GI %)
[8] = test system: NCI-H460; test: NCI-60 anticancer screening (SRB); assay type: cell-based; conditions: Homo sapiens; NCI-H460, NSC lung cancer; one dose 10 μM; read-out: Growth Inhibition Percentage (GI %)
[9] = test system: NCI-H522; test: NCI-60 anticancer screening (SRB); assay type: cell-based; conditions: Homo sapiens; NCI-H522, NSC lung cancer; one dose 10 μM; read-out: Growth Inhibition Percentage (GI %)
[10] = test system: HCT-116; test: NCI-60 anticancer screening (SRB); assay type: cell-based; conditions: Homo sapiens; HCT-116, colon cancer; one dose 10 μM; read-out: Growth Inhibition Percentage (GI %)
[11] = test system: HT29; test: NCI-60 anticancer screening (SRB); assay type: cell-based; conditions: Homo sapiens, HT-29; HT29, colon cancer; one dose 10 μM; read-out: Growth Inhibition Percentage (GI %)
[12] = test system: SF-268; test: NCI-60 anticancer screening (SRB); assay type: cell-based; conditions: Homo sapiens; SF-268, CNS cancer; one dose 10 μM; read-out: Growth Inhibition Percentage (GI %)
[13] = test system: SF-295; test: NCI-60 anticancer screening (SRB); assay type: cell-based; conditions: Homo sapiens; SF-295, CNS cancer; one dose 10 μM; read-out: Growth Inhibition Percentage (GI %)
[14] = test system: SF-539; test: NCI-60 anticancer screening (SRB); assay type: cell-based; conditions: Homo sapiens; SF-539, CNS cancer; one dose 10 μM; read-out: Growth Inhibition Percentage (GI %)
[15] = test system: SNB-19; test: NCI-60 anticancer screening (SRB); assay type: cell-based; conditions: Homo sapiens; SNB-19, CNS cancer; one dose 10 μM; read-out: Growth Inhibition Percentage (GI %)
[16] = test system: SNB-75; test: NCI-60 anticancer screening (SRB); assay type: cell-based; conditions: Homo sapiens; SNB-75, CNS cancer; one dose 10 μM; read-out: Growth Inhibition Percentage (GI %)
[17] = test system: U251; test: NCI-60 anticancer screening (SRB); assay type: cell-based; conditions: Homo sapiens, U-251; U251, CNS cancer; one dose 10 μM; read-out: Growth Inhibition Percentage (GI %)
[18] = test system: LOX IMVI; test: NCI-60 anticancer screening (SRB); assay type: cell-based; conditions: Homo sapiens, melanoma, one dose 10 μM, read-out: Growth Inhibition Percentage (GI %)
[19] = test system: MALME-3M; test: NCI-60 anticancer screening (SRB); assay type: cell-based; conditions: Homo sapiens, melanoma, one dose 10 μM, read-out: Growth Inhibition Percentage (GI %)
[20] = test system: M14; test: NCI-60 anticancer screening (SRB); assay type: cell-based; conditions: Homo sapiens; M14, melanoma; one dose 10 μM; read-out: Growth Inhibition Percentage (GI %)
[21] = test system: SK-MEL-2; test: NCI-60 anticancer screening (SRB); assay type: cell-based; conditions: Homo sapiens; SK-MEL-2, melanoma; one dose 10 μM; read-out: Growth Inhibition Percentage (GI %)
[22] = test system: SK-MEL-5; test: NCI-60 anticancer screening (SRB); assay type: cell-based; conditions: Homo sapiens; SK-MEL-5, melanoma; one dose 10 μM; read-out: Growth Inhibition Percentage (GI %)
[23] = test system: UACC-257; test: NCI-60 anticancer screening (SRB); assay type: cell-based; conditions: Homo sapiens; UACC-257, melanoma; one dose 10 μM; read-out: Growth Inhibition Percentage (GI %)
[24] = test system: IGROV1; test: NCI-60 anticancer screening (SRB); assay type: cell-based; conditions: Homo sapiens, IGROV-1; IGROV1, ovarian cancer; one dose 10 μM; read-out: Growth Inhibition Percentage (GI %)
[25] = test system: OVCAR-5; test: NCI-60 anticancer screening (SRB); assay type: cell-based; conditions: Homo sapiens; OVCAR-5, ovarian cancer; one dose 10 μM; read-out: Growth Inhibition Percentage (GI %)
[26] = test system: 786-0; test: NCI-60 anticancer screening (SRB); assay type: cell-based; conditions: Homo sapiens; 786-0, renal cancer; one dose 10 μM; read-out: Growth Inhibition Percentage (GI %)
[27] = test system: A498; test: NCI-60 anticancer screening (SRB); assay type: cell-based; conditions: Homo sapiens; A498, renal cancer; one dose 10 μM; read-out: Growth Inhibition Percentage (GI %)
[28] = test system: ACHN; test: NCI-60 anticancer screening (SRB); assay type: cell-based; conditions: Homo sapiens, renal cancer, one dose 10 μM, read-out: Growth Inhibition Percentage (GI %)
[29] = test system: CAKI-1; test: NCI-60 anticancer screening (SRB); assay type: cell-based; conditions: Homo sapiens; CAKI-1, renal cancer; one dose 10 μM; read-out: Growth Inhibition Percentage (GI %)
[30] = test system: SN 12C; test: NCI-60 anticancer screening (SRB); assay type: cell-based; conditions: Homo sapiens, SN12C; SN 12C, renal cancer; one dose 10 μM; read-out: Growth Inhibition Percentage (GI %)
[31] = test system: DU-145; test: NCI-60 anticancer screening (SRB); assay type: cell-based; conditions: Homo sapiens; DU-145, prostate cancer; one dose 10 μM; read-out: Growth Inhibition Percentage (GI %)
[32] = test system: T-47D; test: NCI-60 anticancer screening (SRB); assay type: cell-based; conditions: Homo sapiens, T47D, breast cancer, one dose 10 μM, read-out: Growth Inhibition Percentage (GI %)

| SMILES | inhibition at 10 µM [1] [%] | inhibition at 10 µM [2] [%] | inhibition at 10 µM [3] [%] | inhibition at 10 µM [4] [%] | inhibition at 10 µM [5] [%] | inhibition at 10 µM [6] [%] | inhibition at 10 µM [7] [%] | inhibition at 10 µM [8] [%] | inhibition at 10 µM [9] [%] | inhibition at 10 µM [10] [%] | inhibition at 10 µM [11] [%] | inhibition at 10 µM [12] [%] | inhibition at 10 µM [13] [%] | inhibition at 10 µM [14] [%] | inhibition at 10 µM [15] [%] | inhibition at 10 µM [16] [%] | inhibition at 10 µM [17] [%] | inhibition at 10 µM [18] [%] | inhibition at 10 µM [19] [%] | inhibition at 10 µM [20] [%] | further results |
| --- | --- | --- | --- | --- | --- | --- | --- | --- | --- | --- | --- | --- | --- | --- | --- | --- | --- | --- | --- | --- | --- |
| CCOC(=O)C1=C(N)N(c2ccc(Cl)cc2)C2=C(C(=O)CC(C)(C)C2)C1c1ccccc1OC (racemic) [6i, (±)-Ethyl 2-amino-1–(4-chlorophenyl)-4–(2-methoxyphenyl)-7,7-dimethyl-5-oxo-1,4,5,6,7,8-hexahydroquinoline-3-carboxylate] | 66 | 73 | 64 | 44 | < 10 | 12 | 30 | 51 | 43 | 65 | 44 | 27 | 41 | 31 | 28 | 18 | 28 | 37 | 40 | 49 | inhibition at 10 µM [21]: 15%; inhibition at 10 µM [22]: 29%; inhibition at 10 µM [23]: 44%; inhibition at 10 µM [24]: 27%; inhibition at 10 µM [25]: 15%; inhibition at 10 µM [26]: < 10%; inhibition at 10 µM [27]: < 10%; inhibition at 10 µM [28]: 38%; inhibition at 10 µM [29]: 12%; inhibition at 10 µM [30]: 12%; inhibition at 10 µM [31]: < 10%; inhibition at 10 µM [32]: 40%; melting point: 228 to 230 °C |
| CCOC(=O)C1=C(N)N(c2ccc(Cl)cc2)C2=C(C(=O)CC(C)(C)C2)C1c1ccc(N2CCOCC2)cc1 (racemic) [8m, (±)-Ethyl 2-amino-1–(4-chlorophenyl)-7,7-dimethyl-4-[4-(morpholin-4-yl)phenyl]-5-oxo-1,4,5,6,7,8-hexahydroquinoline-3-carboxylate] | < 10 | < 10 | < 10 | 25 | < 10 | < 10 | < 10 | < 10 | 11 | < 10 | < 10 | < 10 | 11 | < 10 | < 10 | < 10 | 12 | < 10 | < 10 | < 10 | inhibition at 10 µM [21]: < 10%; inhibition at 10 µM [22]: 20%; inhibition at 10 µM [23]: < 10%; inhibition at 10 µM [24]: < 10%; inhibition at 10 µM [25]: < 10%; inhibition at 10 µM [26]: 11%; inhibition at 10 µM [27]: < 10%; inhibition at 10 µM [28]: < 10%; inhibition at 10 µM [29]: 13%; inhibition at 10 µM [30]: < 10%; inhibition at 10 µM [31]: < 10%; inhibition at 10 µM [32]: < 10%; melting point: 175 to 177 °C |
| CCOC(=O)C1=C(N)N(c2ccc(Cl)cc2)C2=C(C(=O)CC(C)(C)C2)C1c1ccc([N+](=O)[O-])cc1 (racemic) [8k, (±)-Ethyl2-amino-1–(4-chlorophenyl)-7,7-dimethyl-4–(4-nitrophenyl)-5-oxo-1,4,5,6,7,8-hexahydroquinoline-3-carboxylate] | 26 | 43 | 32 | 15 | < 10 | < 10 | 15 | < 10 | 27 | 34 | < 10 | < 10 | < 10 | < 10 | < 10 | < 10 | < 10 | 21 | < 10 | < 10 | inhibition at 10 µM [21]: 19%; inhibition at 10 µM [22]: < 10%; inhibition at 10 µM [23]: < 10%; inhibition at 10 µM [24]: < 10%; inhibition at 10 µM [25]: < 10%; inhibition at 10 µM [26]: < 10%; inhibition at 10 µM [27]: < 10%; inhibition at 10 µM [28]: 12%; inhibition at 10 µM [29]: 11%; inhibition at 10 µM [30]: < 10%; inhibition at 10 µM [31]: < 10%; inhibition at 10 µM [32]: 27%; melting point: 198 to 200 °C |

Reference: paper PMC10408569, “Recruitment of hexahydroquinoline as anticancer scaffold targeting inhibition of wild and mutants EGFR (EGFR^WT, EGFR^T790M, and EGFR^L858R)” (Journal of Enzyme Inhibition and Medicinal Chemistry, 2023)
